According to patent US5114967A, “Antibiotic alisamycin and its use” (Hoechst Aktiengesellschaft, priority 1990, dated 1992):
Converted amounts (≈) assume the structure as drawn.

Assays:
[1] = system: Staphylococcus aureus 209 p
Botrytis cinerea 47 [2] = system: Botrytis cinerea 47
Candida albicans [3] = assay: agar-well method in Antibiotic Assay medium; conditions: read-out: Zone diam
Piriicularia oryzae [4] = assay: agar-well method in Antibiotic Assay medium; type: cell-based
[5] = system: Staphylococcus aureus E88; assay: agar-well method in Antibiotic Assay medium; conditions: E88, read-out: Zone diam
[6] = system: Staphylococcus aureus E88
[7] = system: Streptococcus faecalis UD8b; assay: agar-well method in Antibiotic Assay medium; conditions: Enterococcus faecalis, read-out: Zone diam
[8] = system: Staphylococcus aureus 209 p; assay: agar-well method in Antibiotic Assay medium; conditions: read-out: Zone diam
[9] = system: Streptococcus faecalis Eder; conditions: Enterococcus faecalis
gram-positive bacteria = assay: antibacterial activity (general statement); type: cell-based
[10] = system: Streptococcus faecalis 23241; assay: agar-well method in Antibiotic Assay medium; conditions: Enterococcus faecalis, 23241, read-out: Zone diam
[11] = system: Streptococcus faecalis 23241; conditions: Enterococcus faecalis
solubility = type: physicochemical
Botrytis cinerea 47 [12] = assay: agar-well method in Antibiotic Assay medium; conditions: Botrytis cinerea, 47, read-out: Zone diam
gram-negative bacteria = assay: antibacterial activity (general statement); type: cell-based
[13] = system: Streptococcus faecalis Eder; assay: agar-well method in Antibiotic Assay medium; conditions: Enterococcus faecalis, read-out: Zone diam
Candida albicans [14] = system: Candida albicans
[15] = system: Staphylococcus aureus 20424
[16] = system: Streptococcus faecalis UD8b; conditions: Enterococcus faecalis
[17] = system: Staphylococcus aureus 20424; assay: agar-well method in Antibiotic Assay medium; conditions: Staphylococcus aureus, 20424, read-out: Zone diam
Piriicularia oryzae [18] = type: cell-based

**Q.** What does the source list for O=C(/C=C/C=C/C1CCCCC1)NC1=CC(O)(/C=C/C=C/C=C/C(=O)NC2=C(O)CCC2=O)C2OC2C1=O (centres unmarked) [Alisamycin]?
**A.** MIC [1]: 1.6 µg/mL (≈ 3.07 µM); MIC (Botrytis cinerea 47 [2]): > 50 µg/mL; zone of inhibition at 500 µg/mL (Candida albicans [3]): 10 mm; zone of inhibition at 32 µg/mL (Piriicularia oryzae [4]; 32 μg/ml): 11 mm; zone of inhibition at 500 µg/mL (Piriicularia oryzae [4]; 500 μg/ml): 15 mm; zone of inhibition at 32 µg/mL [5]: 14 mm; zone of inhibition at 500 µg/mL [5]: 27 mm; MIC [6]: 6.4 µg/mL (≈ 12.3 µM); zone of inhibition at 32 µg/mL [7]: 13 mm; zone of inhibition at 500 µg/mL [7]: 16 mm; zone of inhibition at 32 µg/mL [8]: 18.5 mm; zone of inhibition at 500 µg/mL [8]: 26 mm; MIC [9]: 6.4 µg/mL (≈ 12.3 µM); activity against gram-positive bacteria (gram-positive bacteria): active; MIC (Escherichia coli 9632): > 50 µg/mL; zone of inhibition at 32 µg/mL [10]: 13 mm; zone of inhibition at 500 µg/mL [10]: 22 mm; antiparasitic activity (antiparasitic activity): antiparasitic activities; MIC [11]: 6.4 µg/mL (≈ 12.3 µM); solubility (solubility; acetonitrile): fairly soluble; solubility (solubility; chloroform): fairly soluble; solubility (solubility; dimethylsulfoxide): very soluble; solubility (solubility; ethanol): poorly soluble; solubility (solubility; ethyl acetate): fairly soluble; solubility (solubility; hexane): poorly soluble; solubility (solubility; methanol): poorly soluble; solubility (solubility; methylene chloride): fairly soluble; solubility (solubility; petroleum ether): poorly soluble; solubility (solubility; propylene glycol): very soluble; solubility (solubility; water): poorly soluble; zone of inhibition at 500 µg/mL (Botrytis cinerea 47 [12]): 20 mm; activity against gram-negative bacteria (gram-negative bacteria): active; zone of inhibition at 32 µg/mL [13]: 16 mm; zone of inhibition at 500 µg/mL [13]: 23 mm; MIC (Candida albicans [14]): 50 µg/mL (≈ 96 µM); MIC [15]: 3.2 µg/mL (≈ 6.15 µM); MIC [16]: > 50 µg/mL; zone of inhibition at 32 µg/mL [17]: 19 mm; zone of inhibition at 500 µg/mL [17]: 25 mm; MIC (Piriicularia oryzae [18]): > 50 µg/mL; antitumor activity (antitumor activity): found to have antitumor
